Measured values: the NIST ThermoML archive (doi:10.1016/j.jct.2005.04.010)
± gives the expanded uncertainty stated by the source.

How the values were obtained:
[1] = 101.33 kPa, Liquid
[2] = activity coefficient (dimensionless); of the first substance listed, at infinite dilution; xn = mol fraction of the nth substance listed; details: Liquid, x1 = 0

Structure (SMILES) | activity coefficient ([2]; 303.15 K, dilutor) | activity coefficient ([2]; 313.15 K, dilutor) | activity coefficient ([2]; 323.15 K, dilutor) | activity coefficient ([2]; 333.15 K, dilutor) | activity coefficient ([2]; 303.15 K, Chromatography) | activity coefficient ([2]; 313.15 K, Chromatography) | activity coefficient ([2]; 323.15 K, Chromatography) | activity coefficient ([2]; 333.15 K, Chromatography) | further results
CCCCCCCCn1cc[n+](C)c1.O=S(=O)([N-]S(=O)(=O)C(F)(F)F)C(F)(F)F | – | – | – | – | – | – | – | – | mass density ([1]; 298.15 K): 1325 ± 5 kg/m3; mass density ([1]; 303.15 K): 1320 ± 5 kg/m3; mass density ([1]; 308.15 K): 1316 ± 5 kg/m3; mass density ([1]; 313.15 K): 1311 ± 5 kg/m3; mass density ([1]; 318.15 K): 1307 ± 5 kg/m3; mass density ([1]; 323.15 K): 1303 ± 5 kg/m3; mass density ([1]; 328.15 K): 1298 ± 5 kg/m3; mass density ([1]; 333.15 K): 1294 ± 5 kg/m3; mass density ([1]; 338.15 K): 1289 ± 5 kg/m3; mass density ([1]; 343.15 K): 1285 ± 5 kg/m3
CCCCCC[n+]1ccn(C)c1.O=S(=O)([N-]S(=O)(=O)C(F)(F)F)C(F)(F)F | – | – | – | – | – | – | – | – | mass density ([1]; 293.15 K): 1374 ± 5 kg/m3; mass density ([1]; 298.15 K): 1370 ± 5 kg/m3; mass density ([1]; 303.15 K): 1365 ± 5 kg/m3; mass density ([1]; 308.15 K): 1361 ± 5 kg/m3; mass density ([1]; 313.15 K): 1356 ± 5 kg/m3; mass density ([1]; 318.15 K): 1352 ± 5 kg/m3; mass density ([1]; 323.15 K): 1347 ± 5 kg/m3; mass density ([1]; 328.15 K): 1343 ± 5 kg/m3; mass density ([1]; 333.15 K): 1339 ± 5 kg/m3; mass density ([1]; 338.15 K): 1334 ± 5 kg/m3; mass density ([1]; 343.15 K): 1330 ± 5 kg/m3; mass density ([1]; 348.15 K): 1325 ± 5 kg/m3; mass density ([1]; 353.15 K): 1320 ± 5 kg/m3; mass density ([1]; 358.15 K): 1315 ± 5 kg/m3
CCCCCCC [heptane] + CCCC[N+]1(C)CCCC1.O=S(=O)([N-]S(=O)(=O)C(F)(F)F)C(F)(F)F | 20.7 ± 1 | 19.3 ± 1 | 18.2 ± 0.9 | 17.2 ± 0.9 | – | – | – | – | –
C=CCCCC [hex-1-ene] + CCCCCCCCn1cc[n+](C)c1.O=S(=O)([N-]S(=O)(=O)C(F)(F)F)C(F)(F)F | 3.33 ± 0.17 | 3.3 ± 0.17 | 3.27 ± 0.16 | 3.23 ± 0.16 | 3.29 ± 0.15 | 3.27 ± 0.15 | 3.18 ± 0.14 | 3.18 ± 0.14 | –
C=CCCCC [hex-1-ene] + CCCCCC[n+]1ccn(C)c1.O=S(=O)([N-]S(=O)(=O)C(F)(F)F)C(F)(F)F | 4.64 ± 0.23 | 4.56 ± 0.23 | 4.48 ± 0.22 | 4.39 ± 0.22 | 4.71 ± 0.21 | 4.61 ± 0.21 | 4.48 ± 0.2 | 4.44 ± 0.2 | –
C=CCCCC [hex-1-ene] + CCCC[N+]1(C)CCCC1.O=S(=O)([N-]S(=O)(=O)C(F)(F)F)C(F)(F)F | 7.08 ± 0.35 | 6.92 ± 0.35 | 6.82 ± 0.34 | 6.64 ± 0.33 | – | – | – | – | –
CCCCCC [hexane] + CCCCCCCCn1cc[n+](C)c1.O=S(=O)([N-]S(=O)(=O)C(F)(F)F)C(F)(F)F | 5.44 ± 0.27 | 5.26 ± 0.26 | 5.13 ± 0.26 | 4.97 ± 0.25 | 5.32 ± 0.24 | 5.13 ± 0.23 | 4.92 ± 0.22 | 4.8 ± 0.22 | –
CCCCCC [hexane] + CCCCCC[n+]1ccn(C)c1.O=S(=O)([N-]S(=O)(=O)C(F)(F)F)C(F)(F)F | 7.82 ± 0.39 | 7.55 ± 0.38 | 6.96 ± 0.35 | 6.55 ± 0.33 | 8.23 ± 0.38 | 7.82 ± 0.36 | 7.48 ± 0.34 | 7.27 ± 0.33 | –
CCCCCC [hexane] + CCCC[N+]1(C)CCCC1.O=S(=O)([N-]S(=O)(=O)C(F)(F)F)C(F)(F)F | 13.8 ± 0.7 | 13.3 ± 0.7 | 12.1 ± 0.6 | 11 ± 0.6 | – | – | – | – | –
CO [methanol] + CCCCCCCCn1cc[n+](C)c1.O=S(=O)([N-]S(=O)(=O)C(F)(F)F)C(F)(F)F | – | – | – | – | 1.23 ± 0.04 | 1.14 ± 0.03 | 1.03 ± 0.03 | 0.96 ± 0.03 | –
CO [methanol] + CCCCCC[n+]1ccn(C)c1.O=S(=O)([N-]S(=O)(=O)C(F)(F)F)C(F)(F)F | – | 1.16 ± 0.06 | 1.14 ± 0.06 | 1.05 ± 0.05 | 1.3 ± 0.04 | 1.19 ± 0.04 | 1.1 ± 0.03 | 1.02 ± 0.03 | –
C=CCCCCCC [oct-1-ene] + CCCCCCCCn1cc[n+](C)c1.O=S(=O)([N-]S(=O)(=O)C(F)(F)F)C(F)(F)F | – | – | – | – | 5.57 ± 0.25 | 5.48 ± 0.25 | 5.32 ± 0.24 | 5.28 ± 0.24 | –
C=CCCCCCC [oct-1-ene] + CCCCCC[n+]1ccn(C)c1.O=S(=O)([N-]S(=O)(=O)C(F)(F)F)C(F)(F)F | 8.28 ± 0.41 | 8.08 ± 0.4 | 7.92 ± 0.4 | 7.77 ± 0.39 | 8.81 ± 0.4 | 8.47 ± 0.39 | 8.18 ± 0.38 | 7.9 ± 0.36 | –
C=CCCCCCC [oct-1-ene] + CCCC[N+]1(C)CCCC1.O=S(=O)([N-]S(=O)(=O)C(F)(F)F)C(F)(F)F | 15 ± 0.8 | 13.9 ± 0.7 | 13.3 ± 0.7 | 13.2 ± 0.7 | – | – | – | – | –
CCCCCCCC [octane] + CCCCCCCCn1cc[n+](C)c1.O=S(=O)([N-]S(=O)(=O)C(F)(F)F)C(F)(F)F | – | – | – | – | 8.92 ± 0.41 | 8.43 ± 0.39 | 8.14 ± 0.37 | 7.82 ± 0.36 | –
CCCCCCCC [octane] + CCCCCC[n+]1ccn(C)c1.O=S(=O)([N-]S(=O)(=O)C(F)(F)F)C(F)(F)F | 14.4 ± 0.7 | 14.1 ± 0.7 | 13.1 ± 0.7 | 12.8 ± 0.6 | 15.2 ± 0.7 | 14.3 ± 0.7 | 13.5 ± 0.6 | 13 ± 0.6 | –
CCCCCCCC [octane] + CCCC[N+]1(C)CCCC1.O=S(=O)([N-]S(=O)(=O)C(F)(F)F)C(F)(F)F | 28.3 ± 1.4 | 26.5 ± 1.3 | 25.2 ± 1.3 | 23.7 ± 1.2 | – | – | – | – | –
CCCC(C)=O [pentan-2-one] + CCCCCC[n+]1ccn(C)c1.O=S(=O)([N-]S(=O)(=O)C(F)(F)F)C(F)(F)F | – | – | – | – | 0.51 ± 0.03 | 0.52 ± 0.03 | 0.54 ± 0.03 | 0.55 ± 0.03 | –
CCCC(C)=O [pentan-2-one] + CCCC[N+]1(C)CCCC1.O=S(=O)([N-]S(=O)(=O)C(F)(F)F)C(F)(F)F | 0.63 ± 0.03 | 0.66 ± 0.03 | 0.68 ± 0.03 | 0.71 ± 0.04 | – | – | – | – | –
CCCCC [pentane] + CCCCCCCCn1cc[n+](C)c1.O=S(=O)([N-]S(=O)(=O)C(F)(F)F)C(F)(F)F | 3.98 ± 0.2 | 3.92 ± 0.2 | 3.87 ± 0.19 | 3.84 ± 0.19 | 4.07 ± 0.19 | 3.94 ± 0.18 | 3.78 ± 0.17 | 3.6 ± 0.16 | –
CCCCC [pentane] + CCCCCC[n+]1ccn(C)c1.O=S(=O)([N-]S(=O)(=O)C(F)(F)F)C(F)(F)F | 5.93 ± 0.3 | 5.67 ± 0.28 | 5.48 ± 0.27 | 5.27 ± 0.26 | 5.95 ± 0.27 | 5.76 ± 0.26 | 5.65 ± 0.26 | 5.52 ± 0.25 | –
CCCCC [pentane] + CCCC[N+]1(C)CCCC1.O=S(=O)([N-]S(=O)(=O)C(F)(F)F)C(F)(F)F | 9.22 ± 0.46 | 9.18 ± 0.46 | 8.62 ± 0.43 | 8.29 ± 0.41 | – | – | – | – | –
CCCO [propan-1-ol] + CCCCCCCCn1cc[n+](C)c1.O=S(=O)([N-]S(=O)(=O)C(F)(F)F)C(F)(F)F | – | – | – | – | 1.67 ± 0.07 | 1.51 ± 0.06 | 1.35 ± 0.05 | 1.24 ± 0.04 | –
CCCO [propan-1-ol] + CCCCCC[n+]1ccn(C)c1.O=S(=O)([N-]S(=O)(=O)C(F)(F)F)C(F)(F)F | – | – | – | – | 1.9 ± 0.08 | 1.71 ± 0.07 | 1.57 ± 0.06 | 1.45 ± 0.05 | –
CC(C)O [propan-2-ol] + CCCCCC[n+]1ccn(C)c1.O=S(=O)([N-]S(=O)(=O)C(F)(F)F)C(F)(F)F | 1.72 ± 0.09 | – | 1.37 ± 0.07 | 1.23 ± 0.06 | 1.71 ± 0.07 | – | 1.44 ± 0.05 | 1.33 ± 0.05 | –
CC(C)O [propan-2-ol] + CCCC[N+]1(C)CCCC1.O=S(=O)([N-]S(=O)(=O)C(F)(F)F)C(F)(F)F | 2.11 ± 0.11 | 1.92 ± 0.1 | 1.77 ± 0.09 | 1.63 ± 0.08 | – | – | – | – | –
C1CCOC1 [tetrahydrofuran] + CCCCCC[n+]1ccn(C)c1.O=S(=O)([N-]S(=O)(=O)C(F)(F)F)C(F)(F)F | – | – | – | – | 0.49 ± 0.03 | 0.51 ± 0.03 | 0.53 ± 0.03 | 0.55 ± 0.03 | –
Cc1ccccc1 [toluene] + CCCCCCCCn1cc[n+](C)c1.O=S(=O)([N-]S(=O)(=O)C(F)(F)F)C(F)(F)F | – | – | – | – | 0.82 ± 0.03 | 0.83 ± 0.03 | 0.85 ± 0.03 | 0.85 ± 0.03 | –
Cc1ccccc1 [toluene] + CCCCCC[n+]1ccn(C)c1.O=S(=O)([N-]S(=O)(=O)C(F)(F)F)C(F)(F)F | – | – | – | – | 1.01 ± 0.03 | 1.03 ± 0.03 | 1.05 ± 0.03 | 1.08 ± 0.03 | –
O [water] + CCCCCCCCn1cc[n+](C)c1.O=S(=O)([N-]S(=O)(=O)C(F)(F)F)C(F)(F)F | 3.76 ± 0.19 | 3.51 ± 0.18 | 3.29 ± 0.16 | – | 3.89 ± 0.18 | 3.52 ± 0.16 | 3.03 ± 0.14 | 2.58 ± 0.12 | –
